Data reported in paper PMC6338644 (The FASEB Journal, 2018).
Where a name gives a salt, the structure may show the parent alone.

Assays:
[1] = molecular target: T1, SHIP2 immunoprecipitated from the lysates of hepatoma cells (Rattus norvegicus, UniProt Q9WVR3); experiment: Activity of SHIP2 immunoprecipitated from hepatoma cells; format: cell-based; conditions: 10 µM, 20–24 h
T1 construct: endogenous in cells; host or cells: Fao hepatoma cells
T1 sequence (Q9WVR3 1-1257): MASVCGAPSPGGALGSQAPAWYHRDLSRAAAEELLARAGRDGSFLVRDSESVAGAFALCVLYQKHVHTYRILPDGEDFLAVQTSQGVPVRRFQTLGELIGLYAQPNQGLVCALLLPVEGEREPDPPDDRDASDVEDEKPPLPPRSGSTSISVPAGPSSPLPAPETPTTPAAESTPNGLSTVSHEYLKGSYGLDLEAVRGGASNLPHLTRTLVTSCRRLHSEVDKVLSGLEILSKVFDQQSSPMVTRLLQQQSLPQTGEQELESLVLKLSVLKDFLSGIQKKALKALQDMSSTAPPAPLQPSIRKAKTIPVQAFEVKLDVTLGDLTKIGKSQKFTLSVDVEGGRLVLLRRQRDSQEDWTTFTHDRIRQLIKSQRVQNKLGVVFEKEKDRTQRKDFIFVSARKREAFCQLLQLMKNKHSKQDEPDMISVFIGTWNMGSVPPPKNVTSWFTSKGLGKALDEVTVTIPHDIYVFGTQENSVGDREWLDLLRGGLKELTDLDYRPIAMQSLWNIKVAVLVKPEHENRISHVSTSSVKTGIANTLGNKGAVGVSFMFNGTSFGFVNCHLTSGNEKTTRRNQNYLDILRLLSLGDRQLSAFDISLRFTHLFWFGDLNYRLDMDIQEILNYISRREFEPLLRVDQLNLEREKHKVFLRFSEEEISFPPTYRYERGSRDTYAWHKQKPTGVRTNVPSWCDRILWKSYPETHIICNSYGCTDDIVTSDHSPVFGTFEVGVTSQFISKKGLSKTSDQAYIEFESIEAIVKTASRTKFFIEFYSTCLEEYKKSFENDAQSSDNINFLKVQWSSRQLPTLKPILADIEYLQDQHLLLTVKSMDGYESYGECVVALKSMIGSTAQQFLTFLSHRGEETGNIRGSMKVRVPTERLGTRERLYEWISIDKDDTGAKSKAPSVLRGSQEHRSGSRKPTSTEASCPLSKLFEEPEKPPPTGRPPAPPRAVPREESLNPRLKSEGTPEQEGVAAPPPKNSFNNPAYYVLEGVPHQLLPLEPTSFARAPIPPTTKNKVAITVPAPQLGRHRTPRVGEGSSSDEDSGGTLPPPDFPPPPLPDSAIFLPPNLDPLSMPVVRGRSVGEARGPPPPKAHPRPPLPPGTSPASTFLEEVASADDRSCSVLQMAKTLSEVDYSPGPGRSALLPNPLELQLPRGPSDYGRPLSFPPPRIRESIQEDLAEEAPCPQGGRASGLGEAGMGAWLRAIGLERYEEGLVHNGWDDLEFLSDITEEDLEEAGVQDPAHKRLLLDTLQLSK
Procedure: Immunocomplexes were bound to protein G-Sepharose beads at +4°C for 2 h and washed 3 times with malachite green phosphate assay buffer {10 mM 4-(2-hydroxyethyl)-1-piperazineethanesulfonic acid (HEPES), pH 7.25, 6 mM MgCl2, 0.1% 3-[(3-cholamidopropyl)dimethylammonio]-1-propanesulfonate (CHAPS), 250 mM sucrose, and 0.25 mM EDTA}.
The catalytic activity of SHIP2 immunoprecipitated from cell and tissue lysates was determined as in Saurus et al. ([22]), omitting SHIP2 inhibitors in lysis buffer, immunoprecipitation reaction, wash, and assay buffers.

PCK1 and G6Pase mRNA = experiment: Quantitative RT-PCR of gluconeogenesis genes in db/db mice; format: in vivo, mouse; conditions: 250 mg/kg per day, 12 d
Description: At the end of the experiment, mice were euthanized. […]
The expression levels of the rate-
analyzed by quantitative RT-PCR (n=6).
internal controls for liver and kidney, respectively. The bars show the mean expres sion in arbitrary

L6-GLUT4 myotubes = experiment: Glucose uptake assay in L6-GLUT4 myotubes; format: cell-based, rat; conditions: metformin 2 mM
Procedure: (§1) Immortalized human podocytes were maintained as previously described ([10]). […] Podocytes were lysed as previously described ([21]).
(§2) Glucose uptake assay and On-Cell Western were performed essentially as in Tolvanen et al. ([19]). […] Cells were transferred on ice; incubated with anti-HA IgG in serum-free medium for 15 min, followed by additional incubation in fresh cell differentiation medium for 15 min at +37°C; and fixed with 2% paraformaldehyde for 20 min. Cells were incubated with IRDye 800 donkey anti-mouse IgG and nuclear marker DRAQ-5 (Thermo Fisher Scientific). Detection and quantitation were performed with the Odyssey Infrared Imager (Li-Cor Biosciences, Lincoln, NE, USA).
(§3) L6-GLUT4 myotubes overexpressing SHIP2 were treated and glucose uptake performed as described in C. […] Time point 15 min indicates the amount of HA detected on the cells after 15 min internalization.

[2] = test system: Immortalized human podocytes; experiment: Glucose uptake assay in podocytes; format: cell-based
Procedure: as §1, §2, §3

SHIP2 expression level = experiment: Immunoblot of SHIP2 expression in cultured cells; format: cell-based, rat, human; conditions: 2 mM, 20–24 h; myotubes, podocytes, hepatoma cells
Description: Rat L6 myoblasts (American Type Culture Collection, Manassas, VA, USA) and hepatoma cells (Fao Cells, Culture Collection; Public Health England, Salisbury, United Kingdom) were maintained according to the provider’s instructions. L6 myoblasts stably expressing hemagglutinin-GLUT4-green fluorescent protein (HA-GLUT4-GFP, referred to as L6-GLUT4) were generated, as previously described ([19]). Immortalized human podocytes were maintained as previously described ([10]). Lentiviral infection was used to overexpress or knock down transiently SHIP2 in cultured cells on d 10–12 of differentiation for 48 h (basal level) or 72 h (insulin stimulation), as previously described ([10], [20]). Human pLKO1-short hairpin RNA (shRNA) SHIP2 ([sequence]) was obtained from Functional Genomics Unit, University of Helsinki. […] Podocytes were lysed as previously described ([21]). Myotubes, hepatoma cells, and tissues were lysed and immunoblotting performed as in Tolvanen et al. ([19]) with anti-SHIP2 and anti-AMPK (Santa Cruz Biotechnology, Dallas, TX, USA); anti-phospho (p)Akt (S473), anti-pAMPK (Thr172), anti-AMPK, and anti-cleaved caspase-3 (Cell Signaling Technology, Danvers, MA, USA); anti-Pan Akt (R&D Systems, Minneapolis, MN, USA); anti-tubulin, anti-Glut4, and anti-Glut1 (MilliporeSigma, Burlington, MA, USA); and anti-actin (Abcam, Cambridge, United Kingdom).

[3] = 20–24 h, insulin 100 nM, 15 min

| SMILES | inhibition of SHIP2 in hepatoma cells [1] | G6Pase mRNA level in kidney (PCK1 and G6Pase mRNA) | G6Pase mRNA level in liver (PCK1 and G6Pase mRNA) | PCK1 mRNA level in kidney (PCK1 and G6Pase mRNA) | PCK1 mRNA level in liver (PCK1 and G6Pase mRNA) | increase in insulin-stimulated glucose uptake, SHIP2 knockdown (L6-GLUT4 myotubes; SHIP2 shRNA, 20–24 h, insulin 100 nM, 15 min) [%] | increase in glucose uptake in L6-GLUT4 myotubes (L6-GLUT4 myotubes; control shRNA, 20–24 h, insulin 100 nM, 15 min) [%] | increase in glucose uptake in empty vector-transfected myotubes (L6-GLUT4 myotubes; [3]) [%] | increase in insulin-stimulated glucose uptake, SHIP2 overexpression (L6-GLUT4 myotubes; [3]) [%] | increase in glucose uptake in L6-GLUT4 cells (L6-GLUT4 myotubes; 20–24 h, serum-starved) [%] | glucose uptake in L6-GLUT4 cells, metformin together with insulin (L6-GLUT4 myotubes; 20–24 h plus insulin 100 nM, 15 min) | increase in glucose uptake in podocytes [2] [%] | increase in glucose uptake in podocytes, metformin together with insulin [2] [%] | effect on SHIP2 expression level in cultured cells (SHIP2 expression level) |
| --- | --- | --- | --- | --- | --- | --- | --- | --- | --- | --- | --- | --- | --- | --- |
| C[C@H](NC(=O)c1sccc1OCc1ccc(Cl)cc1)c1ccccc1 [AS1949490] | did not inhibit |  |  |  |  |  |  |  |  |  |  |  |  |  |
| CN(C)C(=N)N=C(N)N [Metformin, 1,1-Dimethylbiguanide hydrochloride] |  | increased | decreased | increased | decreased | 109 | 148 | 155 | 76 | 218 | did not have an additive effect | 52 | 80 | no effect |
